The values that follow are results of earlier work, collected in patent publication US20090082370A1, “Pharmaceutical Combinations of PK Inhibitors and Other Active Agents” (priority 2006, published 2009).

What is called half-life is the time in which the quantity being followed falls by half. A word on the IC50: it is the point on the concentration scale where inhibition reaches its midpoint.

The conditions of series [1]: antitumour agent.
The conditions of series [2]: in vivo.
Series [3] relates to OVCAR-3 tumour cells. Particulars: at concentrations of 50 and 100 microM.
Series [4] deals with PKG. Particulars: read-out: IC50 against PKG.
The subject of series [5] is PKC. To be noted: read-out: IC50 against PKC.
Series [6] has as its system PKA. To be noted: read-out: IC50 against PKA.
In series [7] the target is PKB (Homo sapiens, UniProt P31749). Particulars: read-out: IC50 against PKB.
Chain of PKB (P31749 whole entry, species assumed): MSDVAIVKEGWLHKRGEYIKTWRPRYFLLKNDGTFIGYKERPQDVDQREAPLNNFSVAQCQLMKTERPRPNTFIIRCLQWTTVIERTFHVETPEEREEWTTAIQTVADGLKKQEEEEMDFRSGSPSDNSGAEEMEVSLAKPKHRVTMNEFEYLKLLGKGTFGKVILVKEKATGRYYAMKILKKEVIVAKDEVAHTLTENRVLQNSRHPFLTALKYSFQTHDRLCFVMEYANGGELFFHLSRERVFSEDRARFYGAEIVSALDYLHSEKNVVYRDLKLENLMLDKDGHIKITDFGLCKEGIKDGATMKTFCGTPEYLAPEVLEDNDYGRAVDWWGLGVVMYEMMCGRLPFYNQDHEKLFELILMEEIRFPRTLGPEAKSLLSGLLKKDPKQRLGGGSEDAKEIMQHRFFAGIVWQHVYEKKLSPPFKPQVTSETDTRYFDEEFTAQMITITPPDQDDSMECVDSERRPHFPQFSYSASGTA
For series [8], the system named is phospho-AKT in breast cancer cells. To be noted: both in vitro and in vivo.
For series [9] the following is noted: doses 10 times more than were needed for antitumour activity.
Series [10] concerns Acute Promyelocytic Leukemia (APL).

Consider `CCN[C@H]1CO[C@@H](O[C@H]2[C@H](O[C@H]3C#C/C=C\C#C[C@]4(O)CC(=O)C(NC(=O)OC)=C3/C4=C\CSSSC)O[C@H](C)[C@@H](NO[C@H]3C[C@H](O)[C@H](SC(=O)c4c(C)c(I)c(O[C@@H]5O[C@@H](C)[C@H](O)[C@@H](OC)[C@H]5O)c(OC)c4OC)[C@@H](C)O3)[C@@H]2O)C[C@@H]1OC` [Calicheamicin], for which, in series [1], the “potency relative to adriamycin” value is “over 1,000 times”.

As to `CCCCCCCCCCCCCCCCCCOP(=O)([O-])OC1CC[N+](C)(C)CC1` [KRX-0401], in series [2], the half-life was about 100 h.

Regarding `O=S(=O)(NCCNCC=C(c1ccccc1)c1ccccc1)c1cccc2cnccc12` [NL-71-101], in series [3], the “apoptosis in OVCAR-3 tumour cells, in which PKB is amplified” value is recorded as “induced apoptosis”. Also, the IC50 in series [4] was 36 µM; in [5], 104 µM; in [6] it was 9 µM; in [7] it was 3.7 µM.

Take `CCOC(=O)c1ccc2[nH]c3c(OC)c4[nH]c5ccc(C(=O)OCC)cc5c4cc3c2c1` [SR-13668]: in series [8], the “inhibition of phospho-AKT” value was “significantly inhibits”. The “adverse effects in mice” value in series [9] is reported as “no adverse effects”.

For `CC1=C(/C=C/C(C)=C/C=C/C(C)=C/C(=O)O)C(C)(C)CCC1` [Tretinoin, all-trans retinoic acid], the “remissions in APL patients” value in series [10] is given as 64-100%.
